Patent publication US20260217708A1, “FUSED BENZAZEPINE DERIVATIVES FOR USE IN THE TREATMENT OF CANCER AND EPILEPSY” (UCB BIOPHARMA SRL, priority 2023, published 2026)
Each block holds one compound with its values, some of them ahead of it.

Legend:
[1] = biological target: T1, system Xc^− (Homo sapiens, UniProt Q9UPY5); assay: Cystine-induced glutamate release assay; type: cell-based; design: endogenous in cells; host or cells: H4 cells; settings: H4 cells, sodium-free HEPES buffer, 50 μM L-Cystine, 2 hours, Amplex Red glutamate readout; read-out: pIC50 Cystine-induced glutamate release assay (converted)
T1 sequence (Q9UPY5 1-501): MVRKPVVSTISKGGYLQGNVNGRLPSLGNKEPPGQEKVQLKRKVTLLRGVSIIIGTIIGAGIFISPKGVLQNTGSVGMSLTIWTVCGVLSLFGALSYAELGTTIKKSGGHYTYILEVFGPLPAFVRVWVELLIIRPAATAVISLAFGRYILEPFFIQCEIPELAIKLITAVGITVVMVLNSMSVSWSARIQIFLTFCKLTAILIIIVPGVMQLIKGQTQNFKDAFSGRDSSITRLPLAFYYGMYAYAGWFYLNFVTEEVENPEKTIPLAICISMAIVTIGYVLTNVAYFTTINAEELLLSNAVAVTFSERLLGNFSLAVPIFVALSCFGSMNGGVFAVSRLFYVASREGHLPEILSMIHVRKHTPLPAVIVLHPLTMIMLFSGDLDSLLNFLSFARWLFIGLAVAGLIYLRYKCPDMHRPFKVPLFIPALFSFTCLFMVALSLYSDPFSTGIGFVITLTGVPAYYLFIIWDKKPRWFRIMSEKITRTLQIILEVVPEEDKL
T1 sequence (P08195 1-529 partner): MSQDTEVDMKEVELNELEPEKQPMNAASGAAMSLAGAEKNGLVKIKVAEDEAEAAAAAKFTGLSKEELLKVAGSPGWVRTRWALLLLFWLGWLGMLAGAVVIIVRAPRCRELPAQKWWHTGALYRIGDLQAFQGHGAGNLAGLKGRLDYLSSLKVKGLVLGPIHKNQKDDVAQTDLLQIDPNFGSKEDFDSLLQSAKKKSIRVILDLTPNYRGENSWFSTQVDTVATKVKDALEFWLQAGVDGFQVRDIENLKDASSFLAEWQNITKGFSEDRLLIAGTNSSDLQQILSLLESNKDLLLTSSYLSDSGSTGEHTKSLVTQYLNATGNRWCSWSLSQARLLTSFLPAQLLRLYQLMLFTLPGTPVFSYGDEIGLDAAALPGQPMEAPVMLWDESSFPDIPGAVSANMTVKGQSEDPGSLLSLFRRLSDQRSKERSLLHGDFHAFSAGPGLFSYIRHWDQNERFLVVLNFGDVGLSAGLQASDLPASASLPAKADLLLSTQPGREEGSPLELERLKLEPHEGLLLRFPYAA
In short: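 H4 cells in sodium-free HEPES buffer (pH 7.4), 2 days after plating; glutamate release induced with 50 μM L-cystine plus compound (1% DMSO), 2 h at 37 °C. Supernatant glutamate measured by Amplex Red fluorescence; IC50/pIC50 derived between 1% DMSO and 50 μM erastin controls.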

[2] = biological target: T1, system Xc^−; assay: [^14C]L-Cystine uptake assay; type: cell-based; design: endogenous in cells; host or cells: H4 cells; settings: H4 cells, sodium-free HEPES buffer, 0.5 μM L-[14C]Cystine and 4.5 μM L-Cystine, 1 hour at 37° C.; read-out: pIC50 [^14C] L-Cystine uptake assay (converted)
In short: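 H4 cells at 5×10^4 cells/well in sodium-free HEPES buffer were preincubated 15 min with compounds (1% DMSO). Uptake of 0.5 μM [14C]L-cystine plus 4.5 μM unlabelled L-cystine ran 1 hour at 37° C on scintillating plates. IC50 was set between 1% DMSO and 50 μM Erastin controls and expressed as pIC50.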

Structure (SMILES): O=C(CN1C(=O)Cc2ncccc2-c2c1cc(F)nc2F)Nc1ccc(C(F)(F)F)cc1 [#43, 2-(3,5-difluoro-9-oxo-4,8,12-triazatricyclo [9.4.0.0^2,7]pentadeca-1(11),2,4,6,12,14-hexaen-8-yl)-N-[4-(trifluoromethyl)phen-yl]acetamide]
- IC50 [1]: 0.0398 to 0.1 µM
- IC50 [2]: 0.1 to 0.501 µM

Structure (SMILES): Cc1cc2c(cn1)-c1ccc(Cl)cc1CC(=O)N2CC(=O)Nc1ccc(C(F)(F)F)cc1 [#44, 2-(9-chloro-3-methyl-6-oxo-7H-pyrido[4,3-d][3]benzazepin-5-yl)-N-[4-(trifluoromethyl)phenyl]acetamide]
- IC50 [1]: 0.0398 to 0.1 µM
- IC50 [2]: 0.0398 to 0.1 µM

Structure (SMILES): Cc1cncc2c1-c1ccccc1CC(=O)N2CC(=O)Nc1ccc(C(F)(F)F)cc1 [#45, 2-(1-methyl-6-oxo-7H-pyrido[3,4-d][3]benzazepin-5-yl)-N-[4-(trifluoromethyl)phenyl]acetamide]
- IC50 [1]: 0.0398 to 0.1 µM
- IC50 [2]: 0.1 to 0.501 µM

Structure (SMILES): CN1CCN(c2cc3c(cn2)-c2ccccc2CC(=O)N3CC(=O)Nc2ccc(C(F)(F)F)cc2)CC1=O [#46, 2-[3-(4-methyl-3-oxo-piperazin-1-yl)-6-oxo-7H-pyrido[4,3-d][3]benzazepin-5-yl]-N-[4-(trifluoromethyl)phenyl]acetamide]
- IC50 [1]: 0.0398 to 0.1 µM
- IC50 [2]: 0.0158 to 0.0398 µM

Structure (SMILES): O=C(CN1C(=O)Cc2ccccc2-c2cnc(N3CC(F)(F)C3)cc21)Nc1ccc(C(F)(F)F)cc1 [#47, 2-[3-(3,3-difluoroazetidin-1-v)-6-oxo-7H-pyrido[4,3-d][3]benzazepin-5-yl]-N-[4-(trifluoromethyl)phenyl]acetamide]
- IC50 [1]: 0.0398 to 0.1 µM
- IC50 [2]: 0.0158 to 0.0398 µM

Structure (SMILES): Cc1cc2c(cn1)-c1ccnn1CC(=O)N2CC(=O)Nc1ccc(C(F)(F)F)cc1 [#48, 2-(12-methyl-8-oxo-5,6,9,13-tetrazatricyclo[8.4.0.0^2,6]tetradeca-1(10),2,4,11,13-pentaen-9-yl)-N-[4-(trifluoromethyl)phenyl]acetamide]
- IC50 [1]: 0.1 to 0.501 µM
- IC50 [2]: 0.1 to 0.501 µM

Structure (SMILES): Cc1cc2c(c(Cl)n1)-c1ccccc1CC(=O)N2CC(=O)Nc1ccc(C(F)(F)F)cc1 [#49, 2-(1-chloro-3-methyl-6-oxo-7H-pyrido[4,3-d][3]benzazepin-5-yl)-N-[4-(trifluoromethyl)phenyl]acetamide]
- IC50 [1]: 0.0158 to 0.0398 µM
- IC50 [2]: < 0.0158 µM

Structure (SMILES): Cc1cc2c(c(Cl)n1)-c1ccccc1CC(=O)N2CC(=O)Nc1ccc(Cl)c(F)c1 [#50, N-(4-chloro-3-fluoro-phenyl)-2-(1-chloro-3-methyl-6-oxo-7H-pyrido[4,3-d][3]benz-azepin-5-yl)acetamide]
- IC50 [1]: 0.0398 to 0.1 µM
- IC50 [2]: < 0.0158 µM

Structure (SMILES): O=C(CN1C(=O)Cc2cc(F)ccc2-c2c1ccnc2Cl)Nc1ccc(C(F)(F)F)cc1 [#51, 2-(1-chloro-9-fluoro-6-oxo-7H-pyrido[4,3-d][3]benzazepin-5-yl)-N-[4-(trifluoromethyl)-phenyl]acetamide]
- IC50 [1]: 0.0398 to 0.1 µM
- IC50 [2]: < 0.0158 µM

Structure (SMILES): Cc1cc2c(c(C(F)F)n1)-c1ccccc1CC(=O)N2CC(=O)Nc1ccc(C(F)(F)F)cc1 [#56, 2-[1-(difluoromethyl)-3-methyl-6-oxo-7H-pyrido[4,3-d][3]benzazepin-5-yl]-N-[4-(trifluoromethyl)phenyl]acetamide]
- IC50 [1]: 0.0398 to 0.1 µM
- IC50 [2]: 0.0398 to 0.1 µM

Second part, the compound after the results:

- IC50 [1]: 0.1 to 0.501 µM
- IC50 [2]: 0.1 to 0.501 µM
Structure (SMILES): O=C(CN1C(=O)Cc2ncccc2-c2c1cc(Cl)c(F)c2Cl)Nc1ccc(C(F)(F)F)cc1 [#52, 2-(9,11-dichloro-10-fluoro-6-oxo-5H-pyrido[2,3-d][1]benz-azepin-7-yl)-N-[4-(trifluoromethyl)phen-yl]acetamide]

- IC50 [1]: 0.1 to 0.501 µM
- IC50 [2]: 0.0398 to 0.1 µM
Structure (SMILES): O=C(CN1C(=O)Cc2ncccc2-c2c1ccnc2Cl)Nc1ccc(C(F)(F)F)cc1 [#53, 2-(3-chloro-9-oxo-4,8,12-triazatricyclo [9.4.0.0^2,7]pentadeca-1(11),2(7),3,5,12,14-hexaen-8-yl)-N-[4-(trifluoromethyl)phen-yl]acetamide]

- IC50 [1]: 0.1 to 0.501 µM
- IC50 [2]: 0.0398 to 0.1 µM
Structure (SMILES): N#Cc1ccc2c(c1F)-c1cccnc1CC(=O)N2CC(=O)Nc1ccc(C(F)(F)F)cc1 [#54, 2-(10-cyano-11-fluoro-6-oxo-5H-pyrido[2,3-d][1]benzazepin-7-yl)-N-[4-(trifluoromethyl)-phenyl]acetamide]

- IC50 [1]: 0.0398 to 0.1 µM
- IC50 [2]: 0.1 to 0.501 µM
Structure (SMILES): Cc1cc2c(c(O)n1)-c1ccccc1CC(=O)N2CC(=O)Nc1ccc(C(F)(F)F)cc1 [#55, 2-(1-hydroxy-3-methyl-6-oxo-7H-pyrido[4,3-d][3]benzazepin-5-yl)-N-[4-(trifluoromethyl)phenyl]acetamide]

- IC50 [1]: 0.0158 to 0.0398 µM
- IC50 [2]: 0.0158 to 0.0398 µM
Structure (SMILES): Cc1cc2c(c(C)n1)-c1cccnc1CC(=O)N2CC(=O)Nc1ccc(C(F)(F)F)cc1 [#57, 2-(3,5-dimethyl-9-oxo-4,8,12-triazatricyclo[9.4.0.0^2,7]pentadeca-1(11),2(7),3,5,12,14-hexaen-8-yl)-N-[4-(trifluoromethyl)phenyl]acetamide]

- IC50 [1]: 0.0398 to 0.1 µM
- IC50 [2]: 0.1 to 0.501 µM
Structure (SMILES): Cc1cc2c(c(C)n1)-c1cccnc1CC(=O)N2CC(=O)Nc1ccc(C2CC2)cc1 [#58, N-(4-cyclopropylphenyl)-2-(3,5-dimethyl-9-oxo-4,8,12-triazatricyclo[9.4.0.0^2,7]pentadeca-1(11),2(7),3,5,12,14-hexaen-8-yl)acetamide]

- IC50 [1]: 0.1 to 0.501 µM
- IC50 [2]: 0.1 to 0.501 µM
Structure (SMILES): CC(=O)OCc1cc2c(cn1)-c1ccccc1CC(=O)N2CC(=O)Nc1ccc(C(F)(F)F)cc1 [#59, [6-oxo-5-[2-oxo-2-[4-(trifluoromethyl)anilino]ethyl]-7H-pyrido[4,3-d][3]benzazepin-3-yl]methyl acetate]

- IC50 [1]: 0.1 to 0.501 µM
- IC50 [2]: 0.1 to 0.501 µM
Structure (SMILES): O=C(CN1C(=O)Cc2ccccc2-c2cnc(CO)cc21)Nc1ccc(C(F)(F)F)cc1 [#60, 2-[3-(hydroxymethyl)-6-oxo-7H-pyrido[4,3-d][3]benzazepin-5-yl]-N-[4-(trifluoromethyl)phenyl]acetamide]

- IC50 [1]: 0.0158 to 0.0398 µM
- IC50 [2]: < 0.0158 µM
Structure (SMILES): Cc1cc2c(c(C#N)n1)-c1ccccc1CC(=O)N2CC(=O)Nc1ccc(C(F)(F)F)cc1 [#61, 2-(1-cyano-3-methyl-6-oxo-7H-pyrido[4,3-d][3]benzazepin-5-yl)-N-[4-(trifluoromethyl)phenyl]acetamide]

- IC50 [1]: 0.0158 to 0.0398 µM
- IC50 [2]: < 0.0158 µM
Structure (SMILES): Cc1cc2c(c(C)n1)-c1ccc(Cl)cc1CC(=O)N2CC(=O)Nc1ccc(C(F)(F)F)cc1 [#62, 2-(9-chloro-1,3-dimethyl-6-oxo-7H-pyrido[4,3-d][3]benzazepin-5-yl)-N-[4-(trifluoromethyl)phenyl]acetamide]

- IC50 [1]: 0.0158 to 0.0398 µM
- IC50 [2]: < 0.0158 µM
Structure (SMILES): Cc1cc2c(c(C)n1)-c1cc(F)ccc1CC(=O)N2CC(=O)Nc1ccc(C(F)(F)F)cc1 [#63, 2-(10-fluoro-1,3-dimeth-yl-6-oxo-7H-pyrido[4,3-d][3]benzazepin-5-yl)-N-[4-(trifluoromethyl)-phenyl]acetamide]

- IC50 [1]: 0.0158 to 0.0398 µM
- IC50 [2]: < 0.0158 µM
Structure (SMILES): Cc1cc2c(c(C)n1)-c1cccc(F)c1CC(=O)N2CC(=O)Nc1ccc(C(F)(F)F)cc1 [#64, 2-(8-fluoro-1,3-dimeth-yl-6-oxo-7H-pyrido [4,3-d][3]benzazepin-5-yl)-N-[4-(trifluorometh-yl)phenyl]acetamide]

- IC50 [1]: 0.0158 to 0.0398 µM
- IC50 [2]: < 0.0158 µM
Structure (SMILES): Cc1cc2c(c(C)n1)-c1ccc(F)cc1CC(=O)N2CC(=O)Nc1ccc(C(F)(F)F)cc1 [#65, 2-(9-fluoro-1,3-dimeth-yl-6-oxo-7H-pyrido[4,3-d][3]benzazepin-5-yl)-N-[4-(trifluorometh-yl)phenyl]acetamide]

- IC50 [1]: 0.1 to 0.501 µM
- IC50 [2]: 0.0398 to 0.1 µM
Structure (SMILES): Cc1cc2c(c(CO)n1)-c1ccccc1CC(=O)N2CC(=O)Nc1ccc(C(F)(F)F)cc1 [#66, 2-[1-(hydroxymethyl)-3-methyl-6-oxo-7H-pyrido[4,3-d][3]benz-azepin-5-yl]-N-[4-(trifluoromethyl)phen-yl]acetamide]
